Results on one molecule are retold here after patent US20240051960A1, “SPIROCYCLIC IMIDAZOLIDINONES AND IMIDAZOLIDINEDIONES FOR TREATMENT OF LIGHT CHAIN AMYLOIDOSIS” (Protego Biopharma, Inc., priority 2021, published 2024).

The experiment has as its system Recombinant amyloidogenic full length light chain protein WIL-FL T46L. As to the kind of experiment: Differential Scanning Fluorimetry (thermal shift) assay. The format is binding. Particulars: protein and compounds incubated at RT for 30 min before adding the dye, Thermal Shift Protein Stability Kit, 96-well plates. The protocol: Differential Scanning Fluorimetry Assay
The stabilization effects the compounds have on the immunoglobulin light chain protein is quantitively measured using a thermal shift assay. Recombinant amyloidogenic full length light chain protein WIL-FL T46L is produced in E. coli, purified, and used in the assay. The Thermal Shift Protein Stability Kit from Biotium is used and the assay is done in 96-well Plates following the manufacture's instructions. The protein and compounds are incubated at RT for 30 min before adding the dye and subjected to the thermal shift assay. The thermal stability of each sample is then determined using standard curve fitting methods.
Compounds that induce shifts in the ranges below are listed in the table below: • 0-0.5° C.=* • >0.5-1° C.=** • >1-1.5° C.=*** • >1.5° C.=****
(In general: Differential scanning fluorimetry follows unfolding on heating by fluorescence.)

Turning to `O=C(CN1C(=O)NC2(CCN(c3c[nH]c(=O)[nH]c3=O)CC2)C1=O)Nc1ccc(C(F)(F)F)cc1` [Compound 90], the “Thermal Shift” value is listed as “**** (>1.5° C.=****)”.
